Among the data in PubChem BioAssay (NCI) are GI50 and TGI values, retold here.

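Compound exposure: 48 hours, 5 concentrations, 96-well plates. At the GI50, growth is halved. Definition used: TGI = concentration required for complete inhibition of growth.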 Where only a bound is given, the exact number is not on record here.

Among the test systems are NCI/ADR-RES ovarian; RXF 393 renal; NCI-H226 lung; HS 578T breast; SNB-75 CNS; SW-620 colon; SN12C renal; U251 CNS; HCT-15 colon; OVCAR-8 ovarian.
Holding throughout (assay): NCI tumour cell line growth inhibition, 48 h

In the case of `Cc1ncnc2c1ccn2[C@@H]1C[C@H](Oc2cc(C(F)F)c(F)c3c2CNCC3)[C@@H](O)[C@H]1O`, the GI50 in the assay on NCI/ADR-RES ovarian, in the assay on RXF 393 renal, in the assay with NCI-H226 lung, with HS 578T breast, in the assay on SNB-75 CNS and in the assay with SW-620 colon was over 100 µM in each case. Also, the GI50 in the assay with SN12C renal, in the assay with U251 CNS, in the assay with HCT-15 colon and in the assay with OVCAR-8 ovarian was over 100 µM in each case. In addition, the TGI in the assay on NCI/ADR-RES ovarian, with RXF 393 renal, with NCI-H226 lung, in the assay on HS 578T breast, in the assay with SNB-75 CNS and in the assay on SW-620 colon was over 100 µM throughout. The TGI in the assay on SN12C renal, in the assay on U251 CNS, with HCT-15 colon and with OVCAR-8 ovarian was over 100 µM in each case.
Regarding `CN1CCC(=C(c2ccc(Cl)cc2)c2ccccn2)CC1`, the GI50 is over 100 µM with NCI/ADR-RES ovarian; 54.5 µM with RXF 393 renal; 90.2 µM in the assay with NCI-H226 lung; 44.9 µM in the assay with HS 578T breast; 31 µM with SNB-75 CNS; over 100 µM with SW-620 colon. For the same molecule, the GI50 in the assay with SN12C renal, in the assay on U251 CNS, in the assay on HCT-15 colon and in the assay on OVCAR-8 ovarian was over 100 µM each time. Besides, the TGI in the assay with NCI/ADR-RES ovarian, in the assay on RXF 393 renal, in the assay on NCI-H226 lung, with HS 578T breast, in the assay on SNB-75 CNS and in the assay with SW-620 colon was over 100 µM each time. In addition, the TGI with SN12C renal, in the assay with U251 CNS, in the assay on HCT-15 colon and in the assay on OVCAR-8 ovarian was over 100 µM throughout.
For `Oc1ccc(/C=N/NC(=S)Nc2ccccc2)nc1`, the GI50 in the assay on NCI/ADR-RES ovarian is 1.43 µM; in the assay with RXF 393 renal it was 0.667 µM; with NCI-H226 lung, 2.33 µM; in the assay with HS 578T breast, 9.84 µM; in the assay with SW-620 colon, 2.07 µM; with SN12C renal it was 1.07 µM. In addition, the GI50 in the assay on U251 CNS is 0.65 µM; in the assay with HCT-15 colon, 0.407 µM; in the assay on OVCAR-8 ovarian, 0.586 µM. Moreover, the TGI with NCI/ADR-RES ovarian was over 100 µM; in the assay with RXF 393 renal, 4.91 µM; in the assay on NCI-H226 lung, 6.83 µM; with HS 578T breast, over 100 µM; with SW-620 colon, over 100 µM; with SN12C renal it was over 100 µM. The TGI in the assay on U251 CNS was 81.8 µM; in the assay with HCT-15 colon, over 100 µM; with OVCAR-8 ovarian, over 100 µM.
Take `CN1C(=O)[C@@H](CC2CCCC2)N(C2CCCC2)c2nc(Nc3cc(Cl)c(O)c(Cl)c3)ncc21`: the GI50 was 20.7 µM with NCI/ADR-RES ovarian; 13.5 µM with RXF 393 renal; 25 µM in the assay on NCI-H226 lung; 21.6 µM in the assay with HS 578T breast; 28.2 µM in the assay with SW-620 colon; 21.4 µM in the assay with SN12C renal. The GI50 was 21.6 µM with U251 CNS, 14.6 µM in the assay with HCT-15 colon and 28.4 µM with OVCAR-8 ovarian. Further, the TGI with NCI/ADR-RES ovarian is over 100 µM; in the assay on RXF 393 renal, 52 µM; with NCI-H226 lung, over 100 µM; with HS 578T breast it was over 100 µM; in the assay on SW-620 colon, over 100 µM; in the assay on SN12C renal it was over 100 µM. The TGI in the assay with U251 CNS is 86.9 µM; in the assay with HCT-15 colon it was 56.2 µM; with OVCAR-8 ovarian it was over 100 µM.
On to `CCCCCCCCCCCCCCCC(=O)OCC1OC(OCCCC)[C@H](O[C@@H]2OC(C)C(OC(=O)CCC)C(O)C2O)C(O)C1O` (stereo partly specified), for which the GI50 with NCI/ADR-RES ovarian was 18 µM; in the assay on RXF 393 renal, 22.3 µM; with NCI-H226 lung it was 16.8 µM; in the assay with HS 578T breast it was 16.2 µM; in the assay with SNB-75 CNS, 14.4 µM; in the assay on SW-620 colon it was 21.9 µM. In addition, the GI50 in the assay with SN12C renal was 14.1 µM; with U251 CNS, 18.8 µM; in the assay with HCT-15 colon, 22.5 µM; with OVCAR-8 ovarian it was 17 µM. The TGI was 32.3 µM with NCI/ADR-RES ovarian; 61.2 µM in the assay on RXF 393 renal; 36.2 µM in the assay on NCI-H226 lung; 44.2 µM in the assay on HS 578T breast; 28.7 µM in the assay with SNB-75 CNS; 44.5 µM in the assay on SW-620 colon. Moreover, the TGI in the assay with SN12C renal came to 28.5 µM; in the assay on U251 CNS, 38.8 µM; in the assay with HCT-15 colon it was 55.7 µM; in the assay on OVCAR-8 ovarian it was 32.9 µM.
On to `N#Cc1ncc(-c2ccc(C(F)(F)F)cc2)c(NC2CCCCCC2)n1`, for which the GI50 in the assay with NCI/ADR-RES ovarian was 18.1 µM; in the assay with RXF 393 renal it was 5.12 µM; in the assay with NCI-H226 lung it was 21.8 µM; in the assay on HS 578T breast, 22.4 µM; with SNB-75 CNS, over 100 µM; with SW-620 colon, 8.64 µM. The results for the GI50 with SN12C renal, with HCT-15 colon and in the assay with OVCAR-8 ovarian were 34.8 µM, 8.53 µM and 70.8 µM, respectively. The TGI in the assay with NCI/ADR-RES ovarian, in the assay on RXF 393 renal, with NCI-H226 lung, with HS 578T breast, in the assay with SNB-75 CNS and in the assay with SW-620 colon was over 100 µM each time. For the same molecule, the TGI in the assay with SN12C renal, in the assay on HCT-15 colon and with OVCAR-8 ovarian was over 100 µM in each case.
For the molecule `C/C=C(/C)C(=O)OC1C=C(CO)C(=O)C(OC(=O)C2(C)OC2C)C1C(C)C` (stereo unspecified), the GI50 in the assay on NCI/ADR-RES ovarian is 3.18 µM; in the assay with RXF 393 renal it was 1.77 µM; in the assay on NCI-H226 lung, 3.55 µM; in the assay on HS 578T breast it was 3.68 µM; in the assay on SW-620 colon it was 1.98 µM; in the assay on SN12C renal, 1.45 µM. In addition, the figures for the GI50 with U251 CNS, with HCT-15 colon and in the assay with OVCAR-8 ovarian were 1.52 µM, 1.4 µM and 2.07 µM, respectively. Also, the TGI in the assay with NCI/ADR-RES ovarian was found to be 17.4 µM; in the assay on RXF 393 renal, 3.27 µM; in the assay with NCI-H226 lung, 13.7 µM; in the assay with HS 578T breast it was 22.9 µM; with SW-620 colon, 4.16 µM; in the assay with SN12C renal, 2.99 µM. In addition, the TGI was 2.85 µM with U251 CNS, 3.09 µM in the assay on HCT-15 colon and 5.54 µM with OVCAR-8 ovarian.
In the case of `NC(=O)NC(=O)Nc1ccc(Br)cc1`, the TGI with NCI/ADR-RES ovarian was over 63.5 µM; in the assay on RXF 393 renal, over 100 µM; in the assay on NCI-H226 lung, over 39.1 µM; in the assay on HS 578T breast it was over 100 µM; with SW-620 colon, over 29.4 µM; in the assay with SN12C renal it was over 100 µM. Moreover, the TGI in the assay on U251 CNS is over 52.3 µM; in the assay with HCT-15 colon it was over 65.4 µM; in the assay with OVCAR-8 ovarian, over 34.6 µM.
